Source: patent US20220040158A1, “AZD0328 DOSAGE REGIME FOR TREATING COGNITIVE IMPAIRMENT” (ASTRAZENECA AB, priority 2018, published 2022)
Like-named read-outs stand apart in the source and are kept apart here.

How the values were obtained:
[1] = single compartment oral dosing PK model for AQW051; parameters: species or system human; settings: model parameter estimate
Text: (§1) In more detail, a single compartment oral dosing model with first order absorption as shown in equation (1) for a single dose at time t=0. This population-level model describes the concentration time dynamics of the study cohort given dose D of the drug. Here t is time, C(t) is drug concentration over time, Cmax is maximum achieved concentration at a particular dose, F is bioavailability, D is dose, Vd is volume of distribution, kα is the absorption time constant, and ke is the elimination time constant.
(§2) From the clinical study documentation, for each dose cohort t1/2, tmax, and Cmax could be established. For example, assuming dose-proportionality, half-life t1/2 was estimated for both drugs as the mean over of t1/2 over the different single-dose cohorts, as described in the study publications. We could then determine a working value for the elimination time constant ke in equation (2): […]
(§3) From equation (1), the time of maximum concentration tmax is then available from (3):
(§4) With dose-proportionality, tmax is independent of dose and is again obtained from the mean over the different single-dose cohorts. The absorption time constant kα is established by identifying the kα which results in a zero error e=0:
(§5) This is accomplished by graphing e(kα) over a dense grid in kα, identifying a region around the zero-crossing in which e(.) is monotonic in k0, and then using the interpolation function to estimate the kα with e(kα)=0. With the assumption of dose proportionality, we estimated the mean of Cmax/D over the single-dose cohorts and defined the constant K
(§6) Then from equation (1) and the definition of Cmax,
(§7) For multiple doses at times τi, we then assume linearity and hav
(§8) All equations were implemented directly in R version 3.2.1 (2015 Jun. 18, see https://cran.r-project.org/).
(§9) Dose and dosing regime selection for AZD0328 is targeted to achieve similar levels of α7 nAChR agonism to those reported to deliver clinical improvement in MCI with AQW051 (Trenkwalder et al., ibid).

[2] = geometric mean, cited from earlier work
[3] = tested on: Parkinson's disease patients; settings: cited from earlier work
[4] = AQW051 single-dose cohort pharmacokinetics (Feuerbach et al, phase I); assay type: in vivo, human
Text: (§10) We thus set out to use summary cohort-level pharmacokinetic (PK) statistics for AQW051 (Feuerbach et al, ibid) and our own unpublished results for AZD0328 (A Phase I, Single-Centre, Randomized, Double-Blind, Placebo-Controlled, Parallel Group Study to Assess the Safety, Tolerability and Pharmacokinetics of AZD0328 in Healthy Volunteers after Oral Single Ascending Doses, Study Code D0190C00005, Ed. 1, 8 Apr. 2008) to establish a safe an efficacious dose range and regime for AZD0328 in Parkinson's disease patients.
as §2, §9

α7 nAChR [5] = target: T1, α7 nAChR (Homo sapiens, UniProt P36544); settings: from the literature (Feuerbach et al.); read-out: EC50 as α7 nAChR agonist; cited from earlier work
T1 sequence (P36544 23-502): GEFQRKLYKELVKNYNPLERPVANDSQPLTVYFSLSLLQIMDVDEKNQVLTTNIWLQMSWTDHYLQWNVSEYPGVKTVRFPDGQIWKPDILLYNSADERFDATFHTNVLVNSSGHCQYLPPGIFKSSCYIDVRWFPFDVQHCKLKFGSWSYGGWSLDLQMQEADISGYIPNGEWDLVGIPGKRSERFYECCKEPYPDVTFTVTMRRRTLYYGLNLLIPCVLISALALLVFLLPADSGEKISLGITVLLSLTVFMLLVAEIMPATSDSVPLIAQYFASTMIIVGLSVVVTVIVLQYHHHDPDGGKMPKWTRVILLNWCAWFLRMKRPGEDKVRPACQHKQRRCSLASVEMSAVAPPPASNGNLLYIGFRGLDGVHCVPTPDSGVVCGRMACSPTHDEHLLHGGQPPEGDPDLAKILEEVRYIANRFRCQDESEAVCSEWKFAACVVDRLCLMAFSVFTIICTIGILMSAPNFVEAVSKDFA

α7 nAChR [6] = target: T1, α7 nAChR; experiment: activation of whole cell current at α7 nAChR; assay type: cell-based
α7 nAChR [7] = target: T1, α7 nAChR; experiment: α7 nAChR binding (inhibition of radioligand binding)
Text: (§11) AZD0328 is ca 20-fold selective to the α1β1γδ nAChR, and 1000-fold selective to other nicotinic receptors and a panel of other targets (as determined by inhibition of radioligand binding).

[8] = tested on: other nicotinic receptors and a panel of other targets; experiment: selectivity by inhibition of radioligand binding, other nicotinic receptors and panel; settings: relative to α7 nAChR
Text: as §11

schizophrenia patients = experiment: clinical evaluation of cognition in schizophrenia patients; assay type: in vivo, human; settings: doses up to 0.675 mg
Text: In the case of schizophrenia, it has been widely postulated that direct-acting agonists of various cholinergic receptors including α7 nAChRs, could normalize GABAergic, glutamergic, or dopaminergic function in the dorsolateral prefrontal cortex (dIPFC), dysfunction of which has been consistently associated with cognitive deficits in this condition. […] To date, despite numerous trials, no α7 nAChR agonist has been approved for use in the treatment of schizophrenia.
(§12) In Rhesus monkeys, spatial working memory was enhanced by doses of AZD0328 above 0.001 mg/kg (plasma compound levels of ca 0.2 times the whole cell current IC50).

α7 nAChR [9] = target: T1, α7 nAChR; experiment: Ki for efficacy used as threshold in PK figures; settings: threshold indicated in FIGS. 3-5
rats = settings: oral administration (WO2008/115139); cited from earlier work
[10] = Phase I oral single ascending dose study of AZD0328 in healthy volunteers (safety, tolerability, pharmacokinetics); assay type: in vivo, human
Text: as §10, §2
Capsules used in the study on which the modelling described above was performed were made by blending AZD0328 tartrate (monotartrate/monohydrate form) with mannitol, povidone and sodium starch glycolate (see Table 5). The blend was the subjected to wet granulation with water as the granulation fluid, then dried before blending with sodium stearyl fumarate. The resultant composition was filled into size 4 hard gelatin capsules (containing gelatin (Ph Eur), titanium dioxide (Ph Eur), and iron oxide black, red and yellow (E172). In embodiments, the compositions for use are capsules according to Table 5.

[11] = single compartment oral dosing PK model for AZD0328; parameters: species or system human; settings: model parameter estimate
Text: as §1, §2, §3, §4, §5, §6, §7, §8

α1β1γδ nAChR = α1β1γδ nAChR (Homo sapiens, UniProt P02708+P07510+Q07001); experiment: selectivity by inhibition of radioligand binding, α1β1γδ nAChR; settings: relative to α7 nAChR
α1β1γδ nAChR, sequence (P02708 21-457): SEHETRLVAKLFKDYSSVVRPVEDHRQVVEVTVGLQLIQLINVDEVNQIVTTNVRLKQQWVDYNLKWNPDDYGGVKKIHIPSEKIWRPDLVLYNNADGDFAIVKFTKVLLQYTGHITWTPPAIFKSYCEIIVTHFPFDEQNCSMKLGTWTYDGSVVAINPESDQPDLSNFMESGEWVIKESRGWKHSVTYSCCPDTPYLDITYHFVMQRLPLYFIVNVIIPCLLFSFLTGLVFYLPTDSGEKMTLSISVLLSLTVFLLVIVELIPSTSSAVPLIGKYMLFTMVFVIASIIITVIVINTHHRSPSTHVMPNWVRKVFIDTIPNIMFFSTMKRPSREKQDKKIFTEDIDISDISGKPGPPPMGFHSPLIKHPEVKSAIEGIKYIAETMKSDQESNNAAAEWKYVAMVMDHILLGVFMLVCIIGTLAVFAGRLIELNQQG
α1β1γδ nAChR, sequence (P11230 24-501 partner): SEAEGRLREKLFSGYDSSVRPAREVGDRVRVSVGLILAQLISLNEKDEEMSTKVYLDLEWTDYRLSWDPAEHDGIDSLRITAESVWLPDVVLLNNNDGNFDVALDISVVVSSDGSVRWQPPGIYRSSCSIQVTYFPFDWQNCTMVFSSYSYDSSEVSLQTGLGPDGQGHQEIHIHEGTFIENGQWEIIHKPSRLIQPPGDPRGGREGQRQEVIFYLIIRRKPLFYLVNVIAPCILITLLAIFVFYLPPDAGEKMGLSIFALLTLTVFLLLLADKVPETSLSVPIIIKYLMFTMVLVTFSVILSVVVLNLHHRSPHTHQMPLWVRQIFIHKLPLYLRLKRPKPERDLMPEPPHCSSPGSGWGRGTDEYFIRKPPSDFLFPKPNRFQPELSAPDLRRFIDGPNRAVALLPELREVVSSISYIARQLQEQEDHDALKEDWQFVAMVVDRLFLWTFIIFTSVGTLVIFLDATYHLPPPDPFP
α1β1γδ nAChR, sequence (P07510 23-517): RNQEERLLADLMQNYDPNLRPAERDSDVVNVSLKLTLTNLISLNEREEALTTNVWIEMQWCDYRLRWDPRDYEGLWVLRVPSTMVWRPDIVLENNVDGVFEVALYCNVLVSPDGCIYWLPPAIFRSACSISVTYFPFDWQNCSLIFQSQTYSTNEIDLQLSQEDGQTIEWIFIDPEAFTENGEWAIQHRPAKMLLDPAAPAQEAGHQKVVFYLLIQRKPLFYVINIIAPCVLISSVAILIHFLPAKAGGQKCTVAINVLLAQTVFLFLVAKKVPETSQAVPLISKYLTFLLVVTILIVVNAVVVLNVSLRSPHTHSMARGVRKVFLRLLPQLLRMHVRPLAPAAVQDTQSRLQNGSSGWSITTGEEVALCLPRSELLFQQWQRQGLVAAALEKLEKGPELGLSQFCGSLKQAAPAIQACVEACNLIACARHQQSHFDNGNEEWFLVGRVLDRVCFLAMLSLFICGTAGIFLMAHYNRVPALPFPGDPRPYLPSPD
α1β1γδ nAChR, sequence (Q07001 22-517): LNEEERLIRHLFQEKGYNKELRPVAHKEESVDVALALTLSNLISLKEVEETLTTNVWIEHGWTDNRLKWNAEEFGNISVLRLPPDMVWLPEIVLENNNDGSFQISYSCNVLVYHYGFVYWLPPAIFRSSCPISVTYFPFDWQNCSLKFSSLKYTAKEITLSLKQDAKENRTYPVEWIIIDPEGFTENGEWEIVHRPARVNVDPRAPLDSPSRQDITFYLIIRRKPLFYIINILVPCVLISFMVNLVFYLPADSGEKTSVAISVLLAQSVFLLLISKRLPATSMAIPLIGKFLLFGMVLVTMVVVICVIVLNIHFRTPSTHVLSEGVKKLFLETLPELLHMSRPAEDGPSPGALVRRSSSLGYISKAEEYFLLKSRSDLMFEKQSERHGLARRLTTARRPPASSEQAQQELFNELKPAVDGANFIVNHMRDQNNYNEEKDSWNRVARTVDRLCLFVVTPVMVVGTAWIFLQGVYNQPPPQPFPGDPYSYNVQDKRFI
Text: as §11

Rhesus monkeys = experiment: spatial working memory in Rhesus monkeys; assay type: in vivo, Rhesus monkey
Method: as §12

[12] = healthy volunteers, oral single dose 0.025 mg, cohort geometric mean
[13] = healthy volunteers, oral single dose 0.075 mg, cohort geometric mean
[14] = healthy volunteers, oral single dose 0.23 mg, cohort geometric mean
[15] = healthy volunteers, oral single dose 0.68 mg, cohort geometric mean
[16] = healthy volunteers, oral single dose 1.35 mg, cohort geometric mean
[17] = healthy volunteers, oral single dose 2 mg, cohort geometric mean

## Cc1ccc(-c2ccc(OC3CN4CCC3CC4)cn2)cc1 (stereo not drawn) [AQW051]
[1]
  K (equation 7 and 8): 0.88 ng/mL/mg
  ka (absorption time constant): 0.40 h⁻¹
  ke (elimination time constant): 0.033 h⁻¹
[2]; Cohort 1, single dose 0.5 mg
  Cmax: 0.266 ng/mL
  tmax: 8 h
[2]; Cohort 2, single dose 2.5 mg
  Cmax: 1.20 ng/mL
  tmax: 8 h
[2]; Cohort 3, single dose 7.5 mg
  Cmax: 4.34 ng/mL
  t1/2: 22.0 h
  tmax: 7.98 h
[2]; Cohort 4, single dose 25 mg
  Cmax: 20.6 ng/mL
  t1/2: 22.7 h
  tmax: 8 h
[2]; Cohort 5, single dose 75 mg
  Cmax: 47.0 ng/mL
  t1/2: 18.8 h
  tmax: 4.04 h
[2]; Cohort 6, single dose 200 mg
  Cmax: 162 ng/mL
  t1/2: 20.0 h
  tmax: 4.77 h
[3]; PD patients, 10 mg once daily, P=0.073
  effect size, improvement in MCI: 0.4
[3]; PD patients, 10 mg
  increase in cognitive function: not significantly different from the control group
[3]; PD patients, 50 mg once daily, P=0.024
  effect size, improvement in MCI: 0.5
[3]; PD patients, 50 mg
  improvement in cognitive function: significantly different from the placebo cohort
[3]; Trenkwalder et al 2016 study
  cognitive function: improvements in cognitive function can be realised
[4]; Cohort 1, single dose 0.5 mg
  Cmax/Dose: 0.53 ng/mL/mg
[4]; Cohort 2, single dose 2.5 mg
  Cmax/Dose: 0.48 ng/mL/mg
[4]; Cohort 3, single dose 7.5 mg
  Cmax/Dose: 0.58 ng/mL/mg
[4]; Cohort 4, single dose 25 mg
  Cmax/Dose: 0.82 ng/mL/mg
[4]; Cohort 5, single dose 75 mg
  Cmax/Dose: 0.63 ng/mL/mg
[4]; Cohort 6, single dose 200 mg
  Cmax/Dose: 0.81 ng/mL/mg
[4]; mean over cohorts
  Cmax/Dose: 0.64 ng/mL/mg
  t1/2: 20.9 h
  tmax: 6.80 h
α7 nAChR [5]
  EC50: 40 nM

## c1cnc2c(c1)C[C@@]1(CN3CCC1CC3)O2 [AZD0328, (3R)-spiro[1-azabicyclo[2.2.2]octane-3,2′(3′H)-furo[2,3-b]pyridine]
α7 nAChR [6]; read-out: activation of whole cell current IC50
  EC50: 2900 nM
α7 nAChR [6]; read-out: intrinsic activity compared with acetylcholine
  Emax: 101%
α7 nAChR [7]
  IC50: 3 nM
[8]
  selectivity to other nicotinic receptors and a panel of other targets: 1000 fold
Schizophrenia patients
  improvement in cognition: did not show a statistically significant improvement in cognition
α7 nAChR [9]
  Ki: 5 nM
rats
  long-term potentiation: significantly improve
  operant conditioning: significantly improve
[10]; clinical studies, single dose 0.68 mg
  adverse effects: adverse effects, especially, nausea become apparent
[10]; clinical studies, single doses from 0.25 mg to 0.50 mg
  prevalence of adverse events: markedly reduced
[10]; [12]
  Cmax: 0.63 nM
  t1/2: 6.25 h
[10]; [13]
  Cmax: 2.08 nM
  t1/2: 5.94 h
[10]; [14]
  Cmax: 6.37 nM
  t1/2: 6.69 h
[10]; [15]
  Cmax: 15 nM
  t1/2: 5.98 h
[10]; [16]
  Cmax: 31 nM
  t1/2: 6.87 h
[10]; [17]
  Cmax: 43.9 nM
  tmax: 2.45 h
[10]; human, plasma, oral, mean over cohorts
  half-life: 1.81 h
[10]; human, plasma, oral, mean over cohorts, read-out: tmax
  tmax: 6.21 h
[10]; human, plasma, healthy volunteers, oral single dose 0.025 mg, cohort geometric mean, read-out: tmax
  tmax: 1.44 h
[10]; human, plasma, healthy volunteers, oral single dose 0.075 mg, cohort geometric mean, read-out: tmax
  tmax: 1.59 h
[10]; human, plasma, healthy volunteers, oral single dose 0.23 mg, cohort geometric mean, read-out: tmax
  tmax: 1.38 h
[10]; human, plasma, healthy volunteers, oral single dose 0.68 mg, cohort geometric mean, read-out: tmax
  tmax: 2.08 h
[10]; human, plasma, healthy volunteers, oral single dose 1.35 mg, cohort geometric mean, read-out: tmax
  tmax: 2.95 h
[10]; mean over cohorts
  Cmax/Dose: 24.6 nM/mg
[10]; oral single dose 0.025 mg
  Cmax/Dose: 25.2 nM/mg
[10]; oral single dose 0.075 mg
  Cmax/Dose: 27.7 nM/mg
[10]; oral single dose 0.23 mg
  Cmax/Dose: 27.7 nM/mg
[10]; oral single dose 0.68 mg
  Cmax/Dose: 22.1 nM/mg
[10]; oral single dose 1.35 mg
  Cmax/Dose: 22.9 nM/mg
[10]; oral single dose 2 mg
  Cmax/Dose: 21.94 nM/mg
[11]
  K (equation 7 and 8): 32.4 nm/mg
  ka (absorption time constant): 1.57 h⁻¹
  ke (elimination time constant): 0.11 h⁻¹
α1β1γδ nAChR
  selectivity to the α1β1γδ nAChR: ~20 fold
Rhesus monkeys
  doses enhancing spatial working memory: above 0.001 mg/kg
